Laboratory results as given in patent publication US5035877A, “Non-ionic contrast media from ionic contrast media” (Cook Imaging Corporation, priority 1990, dated 1991).

Legend:
[1] = Viscosity; assay type: physicochemical; conditions: for viscosity (in words): compared with existing compounds
Protocol: (§1) Compounds VIII and XVI were tested from stability, solubility, osmolality, viscosity and systemic toxicity.
(§2) *All at 300 mg I/ml concentration and 37° C. Injection rates 1

[2] = Solubility; assay type: physicochemical; conditions: compared with existing compounds
Protocol: as §1

[3] = Stability; assay type: physicochemical; conditions: compared with existing compounds
Protocol: as §1

[4] = tested on: Rats (Lewis); assay: Estimated i.v. LD50, rats (systemic toxicity); assay type: in vivo; conditions: 300 mg I/ml, 37° C., injection rate 5 ml/min
Protocol: as §1, §2
(§3) ml/min in mice and 5 ml/min in rats.
(§4) °Ref. Salvesen, S. in Acta Radiol. Suppl. 362, p. 73, 1980

[5] = tested on: Mice (CD-1); assay: Estimated i.v. LD50, mice (systemic toxicity); assay type: in vivo; conditions: 300 mg I/ml, 37° C., injection rate 1 ml/min
Protocol: as §1, §2, §3, §4

[6] = Osmolality; assay type: physicochemical; conditions: for osmolality (in words): compared with existing compounds
Protocol: as §1, §2

[7] = Systemic toxicity (conventional tests, in words); assay type: in vivo; conditions: compared with existing compounds
Protocol: as §1

[8] = must be dispensed lyophilized and reconstituted prior to use; cited from earlier work

Structure (SMILES)	viscosity (in words) [1]	solubility (in words) [2]	stability (in words) [3]	Estimated i.v. LD50 [4]	Estimated i.v. LD50 [5]	osmolality (in words) [6]	systemic toxicity (in words) [7]	hydrolytic stability (in words) [8]	Viscosity ([1]; 300 mg I/ml, 37° C.) [cps]	Osmolality ([6]; 300 mg I/ml, 37° C.) [mOsm/kg]
CNC(=O)c1c(I)c(C(=O)N[C@@H](CO)[C@H](O)CO)c(I)c(N(CC(O)CO)C(C)=O)c1I (relative stereo) [XVI, 5-(N-2,3-Dihydroxypropylacetamido)-2,4,6-triiodo-N-methyl-N'-(1,3,4-trihydroxy-erythro-but-2-yl) isophthalamide]	comparable properties in the other categories	comparable properties in the other categories	comparable properties in the other categories	13.5-14 gI/kg	12-13 gI/kg	substantially reduced osmolality	comparable properties in the other categories	–	–	–
CC(=O)N(CC(O)CO)c1c(I)c(C(=O)NCC(O)CO)c(I)c(C(=O)NCC(O)CO)c1I (centres unmarked) [Iohexol]	–	–	–	13.5-15 gI/kg	16-17 gI/kg	–	–	–	–	–
C[C@H](O)C(=O)Nc1c(I)c(C(=O)NC(CO)CO)c(I)c(C(=O)NC(CO)CO)c1I [Iopamidol]	–	–	–	12.2-13 gI/kg	17-18 gI/kg	–	–	–	–	–
COCC(=O)Nc1c(I)c(C(=O)NCC(O)CO)c(I)c(C(=O)N(C)CC(O)CO)c1I (centres unmarked) [Iopromide]	–	–	–	10-11.5 gI/kg	11.5-13.0 gI/kg	–	–	–	–	–
CC(=O)Nc1c(I)c(C(=O)N[C@H]2C(O)O[C@H](CO)[C@@H](O)[C@@H]2O)c(I)c(N(C)C(C)=O)c1I (some centres unmarked) [Metrizamide]	–	–	–	–	–	–	–	hydrolytic instability	–	–
CC(=O)N(CC(O)CO)c1c(I)c(C(=O)NCCO)c(I)c(C(=O)NCC(O)CO)c1I (centres unmarked) [VIII, 5-(N-2,3-dihydroxypropylacetamido)-2,4,6-triiodo-N-(2,3-dihydroxypropyl)-N'-(2-hydroxyethyl)-isophthalamide]	comparable properties in the other categories	comparable properties in the other categories	comparable properties in the other categories	14-16.5 gI/kg	16-17 gI/kg	substantially reduced osmolality	comparable properties in the other categories	–	5.3	560
